The values below come from US10570149B2, “Tricyclic heterocylic derivatives” (MERCK PATENT GMBH, priority 2016, dated 2020).

This assay concerns the target T1, ATR/ATRIP (Homo sapiens, UniProt Q13535).
T1 construct: human ATR, full length, GenBank ID: NM_001184.3; p53: Sf21 insect cells
As to the kind of experiment: ATR/ATRIP kinase assay (TR-FRET, p53 phosphorylation). In kind it is biochemical. The following applies: Table 1, class symbols; read-out: ATR-ATRIP IC50. How it is done: ATR/ATRIP Kinase Assay—Measurement of ATR/ATRIP Inhibition
The IC50 value was determined by an ATR/ATRIP enzymatic assay. The assay comprises two steps: the enzymatic reaction and the detection step. First, a mixture of ATR/ATRIP protein (Ataxia Telangiectasia and Rad3-related protein/ATR interacting protein), the compound in question at different concentrations, p53 as substrate protein and adenosine triphosphate (ATP) are incubated in assay buffer. ATR phosphorylates p53 at Ser15 and other residues. The amount of phosphorylated p53 is then detected using specific antibodies and the TR-FRET assay technology.
In detail: The ATR/ATRIP enzymatic assay is performed as a TR-FRET-(HTRF™, Cisbio Bioassays) based 384-well assay. In a first step, purified human recombinant ATR/ATRIP (human ATR, full length, GenBank ID: NM_001184.3, and human ATRIP, full length, GenBank ID AF451323.1, co-expressed in a mammalian cell line) is incubated in assay buffer for 15 minutes at 22° C. with test compound at different concentrations or without test compound (as a negative control). The assay buffer contains 25 mM HEPES pH 8.0, 10 mM Mg(CH3COO)2, 1 mM MnCl2, 0.1% BSA, 0.01% Brij® 35, and 5 mM dithiothreitol (DTT). […] Then, in a second step, purified human recombinant cmyc-tagged p53 (human p53, full length, GenBank ID: BC003596, expressed in Sf21 insect cells) and ATP are added and the reaction mixture is incubated for 25-35 minutes, typically 25 minutes, at 22° C. The pharmacologically relevant assay volume is 5 μl. The final concentrations in the assay during incubation of the reaction mixture are 0.3-0.5 nM, typically 0.3 nM, ATR/ATRIP, 50 nM p53, and 0.5 μM ATP. The enzymatic reaction is stopped by the addition of EDTA. […] Following signal development for 2 h the plates are analyzed in an EnVision (PerkinElmer) microplate reader using the TRF mode with laser excitation. […] Data are processed employing the Genedata Screener software. In particular, IC50 values are determined in the usual manner by fitting a dose-response curve to the data points using nonlinear regression analysis.

pIC50: −log10 of the molar value. Some results are limits rather than exact numbers.

T1 sequence (Q13535 whole entry): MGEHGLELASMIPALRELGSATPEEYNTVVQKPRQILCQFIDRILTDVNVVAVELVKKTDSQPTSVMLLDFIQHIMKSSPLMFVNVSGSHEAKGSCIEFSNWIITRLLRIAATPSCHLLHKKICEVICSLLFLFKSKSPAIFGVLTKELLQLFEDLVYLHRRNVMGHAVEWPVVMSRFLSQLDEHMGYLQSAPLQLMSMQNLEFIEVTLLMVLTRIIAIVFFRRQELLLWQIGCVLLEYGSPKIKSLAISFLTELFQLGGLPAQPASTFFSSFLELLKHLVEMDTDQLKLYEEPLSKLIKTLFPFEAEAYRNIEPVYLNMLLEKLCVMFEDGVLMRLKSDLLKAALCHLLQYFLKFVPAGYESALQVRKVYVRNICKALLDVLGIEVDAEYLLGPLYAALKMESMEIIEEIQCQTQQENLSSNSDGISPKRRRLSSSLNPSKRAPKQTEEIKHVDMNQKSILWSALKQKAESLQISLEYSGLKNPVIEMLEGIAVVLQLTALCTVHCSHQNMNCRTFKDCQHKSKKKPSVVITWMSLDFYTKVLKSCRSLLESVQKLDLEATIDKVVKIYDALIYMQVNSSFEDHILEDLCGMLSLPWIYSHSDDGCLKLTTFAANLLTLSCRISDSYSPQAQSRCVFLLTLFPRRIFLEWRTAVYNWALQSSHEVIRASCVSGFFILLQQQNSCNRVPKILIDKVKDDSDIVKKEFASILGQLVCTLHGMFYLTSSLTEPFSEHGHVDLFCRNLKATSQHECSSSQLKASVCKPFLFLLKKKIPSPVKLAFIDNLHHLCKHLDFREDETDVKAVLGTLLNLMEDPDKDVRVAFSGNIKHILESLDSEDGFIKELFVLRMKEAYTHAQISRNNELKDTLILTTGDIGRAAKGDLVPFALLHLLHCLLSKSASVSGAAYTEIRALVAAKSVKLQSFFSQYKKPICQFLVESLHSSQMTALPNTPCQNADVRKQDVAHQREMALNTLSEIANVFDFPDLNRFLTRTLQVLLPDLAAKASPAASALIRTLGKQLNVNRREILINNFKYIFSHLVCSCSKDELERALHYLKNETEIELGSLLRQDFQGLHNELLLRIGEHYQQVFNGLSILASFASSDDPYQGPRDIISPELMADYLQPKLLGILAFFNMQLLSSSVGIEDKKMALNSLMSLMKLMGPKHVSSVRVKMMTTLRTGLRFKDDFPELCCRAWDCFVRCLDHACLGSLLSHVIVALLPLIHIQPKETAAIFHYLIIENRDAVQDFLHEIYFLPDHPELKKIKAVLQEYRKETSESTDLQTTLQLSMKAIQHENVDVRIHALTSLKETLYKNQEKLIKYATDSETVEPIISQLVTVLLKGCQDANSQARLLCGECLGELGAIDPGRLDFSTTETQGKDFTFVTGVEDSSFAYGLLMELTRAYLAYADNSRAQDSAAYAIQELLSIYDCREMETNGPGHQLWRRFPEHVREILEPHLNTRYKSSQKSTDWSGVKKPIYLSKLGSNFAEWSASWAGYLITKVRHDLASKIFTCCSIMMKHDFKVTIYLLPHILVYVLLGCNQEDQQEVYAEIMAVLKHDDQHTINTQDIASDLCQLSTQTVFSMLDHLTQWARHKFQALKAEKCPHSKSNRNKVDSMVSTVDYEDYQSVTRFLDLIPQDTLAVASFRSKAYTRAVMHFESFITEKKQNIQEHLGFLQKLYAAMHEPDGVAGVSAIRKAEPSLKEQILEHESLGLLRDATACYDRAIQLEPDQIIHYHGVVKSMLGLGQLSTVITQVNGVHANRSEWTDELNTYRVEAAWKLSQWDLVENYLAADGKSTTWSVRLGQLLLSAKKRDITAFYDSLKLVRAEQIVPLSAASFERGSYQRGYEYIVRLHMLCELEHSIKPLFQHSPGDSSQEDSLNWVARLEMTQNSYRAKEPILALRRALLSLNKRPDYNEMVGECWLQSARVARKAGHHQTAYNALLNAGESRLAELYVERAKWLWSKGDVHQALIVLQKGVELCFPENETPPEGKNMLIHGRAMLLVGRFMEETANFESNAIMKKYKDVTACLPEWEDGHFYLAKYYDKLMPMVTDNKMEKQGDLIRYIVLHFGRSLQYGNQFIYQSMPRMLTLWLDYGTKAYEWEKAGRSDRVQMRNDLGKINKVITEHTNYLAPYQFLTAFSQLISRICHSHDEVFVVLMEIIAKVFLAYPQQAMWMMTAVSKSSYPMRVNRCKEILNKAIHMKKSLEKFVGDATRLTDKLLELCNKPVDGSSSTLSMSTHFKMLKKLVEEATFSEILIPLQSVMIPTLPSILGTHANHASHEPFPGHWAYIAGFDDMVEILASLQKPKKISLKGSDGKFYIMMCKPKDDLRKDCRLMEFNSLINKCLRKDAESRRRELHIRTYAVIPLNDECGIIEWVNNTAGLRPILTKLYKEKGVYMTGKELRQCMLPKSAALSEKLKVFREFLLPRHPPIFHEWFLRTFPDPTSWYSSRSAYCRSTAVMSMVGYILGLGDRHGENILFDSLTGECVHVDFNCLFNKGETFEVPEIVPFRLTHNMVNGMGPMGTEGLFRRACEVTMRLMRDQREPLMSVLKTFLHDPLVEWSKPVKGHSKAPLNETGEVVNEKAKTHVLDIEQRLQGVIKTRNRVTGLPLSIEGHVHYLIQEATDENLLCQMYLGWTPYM
T1 sequence (Q8WXE1 whole entry partner): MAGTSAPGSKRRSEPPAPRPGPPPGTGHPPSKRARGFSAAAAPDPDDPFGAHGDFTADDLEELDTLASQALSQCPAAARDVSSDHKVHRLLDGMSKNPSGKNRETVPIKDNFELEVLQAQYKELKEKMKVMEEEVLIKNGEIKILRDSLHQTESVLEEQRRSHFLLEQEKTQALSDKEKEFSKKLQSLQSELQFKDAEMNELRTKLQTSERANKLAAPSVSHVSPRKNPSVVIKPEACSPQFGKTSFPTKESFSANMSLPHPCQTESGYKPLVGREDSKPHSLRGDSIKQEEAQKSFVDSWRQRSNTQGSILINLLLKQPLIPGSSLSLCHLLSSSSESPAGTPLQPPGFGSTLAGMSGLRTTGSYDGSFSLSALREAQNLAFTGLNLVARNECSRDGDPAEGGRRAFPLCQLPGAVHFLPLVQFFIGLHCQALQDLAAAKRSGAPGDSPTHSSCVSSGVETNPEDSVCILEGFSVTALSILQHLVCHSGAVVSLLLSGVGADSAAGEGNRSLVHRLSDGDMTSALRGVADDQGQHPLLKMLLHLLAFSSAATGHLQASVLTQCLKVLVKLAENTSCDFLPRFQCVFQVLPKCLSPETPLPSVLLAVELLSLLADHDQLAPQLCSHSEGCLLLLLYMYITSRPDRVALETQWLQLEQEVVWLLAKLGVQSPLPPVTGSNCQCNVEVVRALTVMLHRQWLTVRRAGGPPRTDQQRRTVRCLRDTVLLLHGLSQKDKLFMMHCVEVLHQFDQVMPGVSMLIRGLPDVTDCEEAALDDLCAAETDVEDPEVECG

In the case of `C[C@@H]1COC[C@H]2COc3c(nc(-c4cccc(CO)c4)nc3C(C)(C)S(C)(=O)=O)N21` [A41, {3-[(5R,8aS)-1-(1-methanesulfonyl-1-methyl-ethyl)-5-methyl-5,6,8a,9-tetrahydro-8H-7,10-dioxa-2,4,4b-triaza-phenanthren-3-yl]-phenyl}-methanol], the pIC50 is more than 9.00.
With `C[C@@H]1COC[C@H]2COc3c(nc(Nc4nc[nH]n4)nc3C(C)(C)S(C)(=O)=O)N21` [A79, [(5R,8aS)-1-(1-methanesulfonyl-1-methyl-ethyl)-5-methyl-5,6,8a,9-tetrahydro-8H-7,10-dioxa-2,4,4b-triaza-phenanthren-3-yl]-(1H[1,2,4]triazol-3-yl)-amine], the pIC50 is 7.00 to 8.00.
The same measure for `C[C@@H]1COC[C@H]2COc3c(nc(Oc4cn[nH]c4)nc3C(C)(C)S(C)(=O)=O)N21` [A80, (5R,8aS)-1-(1-methanesulfonyl-1-methyl-ethyl)-5-methyl-3-(1H-pyrazol-4-yloxy)-5,6,8a,9-tetrahydro-8H-7,10-dioxa-2,4,4b-triaza-phenanthrene]: 6.30 to 7.00; for `C[C@@H]1COC[C@H]2COc3c(nc(N(C)c4nc5ccccc5[nH]4)nc3C(C)(C)S(C)(=O)=O)N21` [A16, (1H-Benzimidazol-2-yl)-[(5R,8aS)-1-(1-methanesulfonyl-1-methyl-ethyl)-5-methyl-5,6,8a,9-tetrahydro-8H-7,10-dioxa-2,4,4b-triaza-phenanthren-3-yl]-methyl-amine]: 7.00 to 8.00; for `C[C@@H]1COC[C@H]2COc3c(nc(-c4ccc5c(c4)CCNC5)nc3C(C)(C)S(C)(=O)=O)N21` [A71, (5R,8aS)-1-(1-methanesulfonyl-1-methyl-ethyl)-5-methyl-3-(1,2,3,4-tetrahydro-isoquinolin-6-yl)-5,6,8a,9-tetrahydro-8H-7,10-dioxa-2,4,4b-triaza-phenanthrene]: 6.30 to 7.00.
The same measure for `CNc1ncn(-c2nc3c(c(C(C)(C)S(C)(=O)=O)n2)OC[C@@H]2COC[C@@H](C)N32)n1` [A43]: 6.30 to 7.00; for `C[C@@H]1COC[C@H]2COc3c(nc(C(=O)NC[C@@H](C)O)nc3C(C)(C)S(C)(=O)=O)N21` [A53, (4bS,6R)-1-(1-methanesulfonyl-1-methyl-ethyl)-5-methyl-5,6,8a,9-tetrahydro-8H-7,10-dioxa-2,4,4b-triaza-phenanthrene-3-carboxylic Acid ((R)-2-hydroxy-propyl)-amide]: 4.52 to 6.30; for `C[C@@H]1COC[C@H]2COc3c(nc(-n4cc(C#N)c5ccccc54)nc3C(C)(C)S(C)(=O)=O)N21` [A70, 1-[(5R,8aS)-1-(1-methanesulfonyl-1-methyl-ethyl)-5-methyl-5,6,8a,9-tetrahydro-8H-7,10-dioxa-2,4,4b-triaza-phenanthren-3-yl]-1H-indole-3-carbonitrile]: 7.00 to 8.00.
Regarding `C[C@@H]1COC[C@H]2COc3c(nc(-c4ccc(-c5ccn[nH]5)cc4)nc3C(C)(C)S(C)(=O)=O)N21` [A60, (5R,8aS)-1-(1-methanesulfonyl-1-methyl-ethyl)-5-methyl-3-[4-(2H-pyrazol-3-yl)-phenyl]-5,6,8a,9-tetrahydro-8H-7,10-dioxa-2,4,4b-triaza-phenanthrene], the pIC50 is 7.00 to 8.00.
The same measure for `COc1cnc2[nH]ccc2c1-c1nc2c(c(C(C)(C)S(C)(=O)=O)n1)OC[C@@H]1COC[C@@H](C)N21` [A88, (10S,14R)-6-(2-methanesulfonylpropan-2-yl)-4-{5-methoxy-1H-pyrrolo[2,3-b]pyridin-4-yl}-14-methyl-8,12-dioxa-1,3,5-triazatricyclo[8.4.0.0^2,7]tetradeca-2,4,6-triene]: 7.00 to 8.00; for `C[C@@H]1COC[C@H]2COc3c(nc(C(=O)N4CC[C@@H](N)C4)nc3C(C)(C)S(C)(=O)=O)N21` [A51, ((R)-3-amino-pyrrolidin-1-yl)-[(4bS,6R)-1-(1-methanesulfonyl-1-methyl-ethyl)-5-methyl-5,6,8a,9-tetrahydro-8H-7,10-dioxa-2,4,4b-triaza-phenanthren-3-yl]-methanone]: 4.52 to 6.30.
Consider `C[C@@H]1COC[C@H]2COc3c(nc(-c4c(F)ncc5c4ccn5C)nc3C(C)(C)S(C)(=O)=O)N21` [A38, (5R,8aS)-3-(5-fluoro-1-methyl-1H-pyrrolo[2,3-c]pyridin-4-yl)-1-(1-methanesulfonyl-1-methyl-ethyl)-5-methyl-5,6,8a,9-tetrahydro-8H-7,10-dioxa-2,4,4b-triaza-phenanthrene], for which the pIC50 is 4.52 to 6.30.
The same measure for `C[C@@H]1COC[C@H]2COc3c(nc(C(=O)N4CC[C@H](O)C4)nc3C(C)(C)S(C)(=O)=O)N21` [A48, ((S)-3-hydroxy-pyrrolidin-1-yl)-[(4bS,6R)-1-(1-methanesulfonyl-1-methyl-ethyl)-5-methyl-5,6,8a,9-tetrahydro-8H-7,10-dioxa-2,4,4b-triaza-phenanthren-3-yl]-methanone]: 4.52 to 6.30; for `C[C@@H]1COC[C@H]2COc3c(nc(C(=O)Nc4ccnnc4)nc3C(C)(C)S(C)(=O)=O)N21` [A57, (4bS,6R)-1-(1-methanesulfonyl-1-methyl-ethyl)-5-methyl-5,6,8a,9-tetrahydro-8H-7,10-dioxa-2,4,4b-triaza-phenanthrene-3-carboxylic Acid pyridazin-4-ylamide]: 4.52 to 6.30.
As for `C[C@@H]1COC[C@H]2COc3c(nc(-c4c(C#N)cnc5[nH]ccc45)nc3C(C)(C)S(C)(=O)=O)N21` [A89, 4-[(10S,14R)-6-(2-methanesulfonylpropan-2-yl)-14-methyl-8,12-dioxa-1,3,5-triazatricyclo[8.4.0.0^{2,7}]tetradeca-2,4,6-trien-4-yl]-1H-pyrrolo[2,3-b]pyridine-5-carbonitrile], the pIC50 was 8.00 to 9.00.
The same measure for `CNc1nc2ccccc2n1-c1nc(Cn2nncc2C(=O)O)c2c(n1)N1[C@@H](COC[C@H]1C)CO2` [A3, 3-[(5R,8aS)-5-Methyl-3-(2-methylamino-benzoimidazol-1-yl)-5,6,8a,9-tetrahydro-8H-7,10-dioxa-2,4,4b-triaza-phenanthren-1-ylmethyl]-3H[1,2,3]triazole-4-carboxylic Acid]: 6.30 to 7.00; for `C[C@@H]1COC[C@H]2COc3c(Cn4cc(C(=O)O)nn4)nc(-c4ccnc5[nH]ccc45)nc3N21` [A4, 1-[(5R,8aS)-5-Methyl-3-(1H-pyrrolo[2,3-b]pyridin-4-yl)-5,6,8a,9-tetrahydro-8H-7,10-dioxa-2,4,4b-triaza-phenanthren-1-ylmethyl]-1H-[1,2,3]triazole-4-carboxylic Acid]: 8.00 to 9.00; for `C[C@@H]1COC[C@H]2COc3c(nc(Nc4cn[nH]c4)nc3C(C)(C)S(C)(=O)=O)N21` [A75, [(5R,8aS)-1-(1-methanesulfonyl-1-methyl-ethyl)-5-methyl-5,6,8a,9-tetrahydro-8H-7,10-dioxa-2,4,4b-triaza-phenanthren-3-yl]-(1H-pyrazol-4-yl)-amine]: 7.00 to 8.00.
With `COC(=O)c1cn(Cc2nc(-c3ccnc4c3ccn4C)nc3c2OC[C@@H]2COC[C@@H](C)N32)nn1` [A19, 1-[(5R,8aS)-5-Methyl-3-(1-methyl-1H-pyrrolo[2,3-b]pyridin-4-yl)-5,6,8a,9-tetrahydro-8H-7,10-dioxa-2,4,4b-triaza-phenanthren-1-ylmethyl]-1H[1,2,3]triazole-4-carboxylic Acid Methyl Ester], the pIC50 is 6.30 to 7.00.
